ChEMBL document CHEMBL3217585, “A rational design to create hybrid -sheet breaker peptides to inhibit aggregation and toxicity of amyloid-” (Medchemcomm, 2011)
*1 amine or outer side, *2 acyl side, *3 side chain or, on linkers, in order; H or OH if unused. Where a SMILES comes first, the peptide text is derived from it. The star is where a group is joined. X7 = O=C(OC[C@@H](COS(=O)(=O)O)OS(=O)(=O)O)*; X6 = O=C(OC[C@H](COS(=O)(=O)O)OS(=O)(=O)O)*; X12 = O=S(=O)(O)OC[C@H](CN*)OS(=O)(=O)O; X2 = O=S(=O)(O)OC[C@@H](CN*)OS(=O)(=O)O; NH(3-hydroxypropyl) = OCCCN*; X3 = O=C(OCCCOS(=O)(=O)O)*; X10 = O=C(OC[C@@H](O)CO)*; X11 = O=C(OC[C@H](O)CO)*; X9 = O=S(=O)(O)OCCCCN*; X5 = O=S(=O)(O)OCCCN*; CO = O=C([*:1])[*:2]; NH(CH2)4OH = OCCCCN*; X14 = OC[C@H](O)CN*; X4 = OC[C@@H](O)CN*; X13 = O=C(OCCCO)*

Tests used:
[1] = target: Amyloid-beta precursor protein (Homo sapiens) (UniProt P05067); test: Inhibition of amyloid beta (1 to 42)-mediated cytotoxicity in HBP assessed as cell death at 1:5 protein to compound ratio after 6 days by fluorescence assay relative to control; set-up: scale not given: the % may be the effect or the level left
Amyloid-beta precursor protein (Homo sapiens), sequence (P05067 whole entry): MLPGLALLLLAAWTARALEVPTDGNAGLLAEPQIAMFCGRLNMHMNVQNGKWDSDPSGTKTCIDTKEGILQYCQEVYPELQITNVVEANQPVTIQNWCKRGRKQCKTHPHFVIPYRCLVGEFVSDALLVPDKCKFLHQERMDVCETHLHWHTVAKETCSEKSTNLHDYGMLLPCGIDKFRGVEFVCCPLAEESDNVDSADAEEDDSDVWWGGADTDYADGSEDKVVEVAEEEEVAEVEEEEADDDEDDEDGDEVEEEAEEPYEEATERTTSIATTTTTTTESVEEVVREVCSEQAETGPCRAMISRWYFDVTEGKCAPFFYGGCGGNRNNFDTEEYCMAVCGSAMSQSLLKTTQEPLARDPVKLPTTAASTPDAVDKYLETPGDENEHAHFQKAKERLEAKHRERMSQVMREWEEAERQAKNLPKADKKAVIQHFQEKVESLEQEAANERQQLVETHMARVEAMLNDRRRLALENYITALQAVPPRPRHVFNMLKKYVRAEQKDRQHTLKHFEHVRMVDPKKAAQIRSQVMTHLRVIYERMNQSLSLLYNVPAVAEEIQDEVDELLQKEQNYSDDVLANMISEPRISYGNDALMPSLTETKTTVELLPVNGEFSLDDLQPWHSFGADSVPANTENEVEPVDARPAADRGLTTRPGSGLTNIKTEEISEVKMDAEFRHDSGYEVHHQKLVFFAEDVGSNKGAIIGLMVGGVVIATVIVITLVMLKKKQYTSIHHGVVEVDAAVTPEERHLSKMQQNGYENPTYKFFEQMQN

[2] = target: Amyloid-beta precursor protein (Homo sapiens) (UniProt P05067); test: Inhibition of amyloid beta (1 to 42) aggregation in HBP assessed as beta sheet formation at 1:20 protein to compound ratio after 48 hrs by Th-T fluorescence assay relative to control; set-up: scale not given: the % may be the effect or the level left
[3] = Cytotoxicity against HBP assessed as cell death at 50 uM after 6 days by fluorescence assay; conditions: human, 144 h
[4] = target: Amyloid-beta precursor protein (Homo sapiens) (UniProt P05067); test: Inhibition of monomeric amyloid beta (unknown origin) aggregation at 1:20 protein to compound ratio relative to control; conditions: concentration not given here
[5] = target: Amyloid-beta precursor protein (Homo sapiens) (UniProt P05067); test: Inhibition of monomeric amyloid beta (unknown origin)-mediated cytotoxicity at 1:5 protein to compound ratio by cell-based assay relative to control; conditions: concentration not given here

| Molecule | Activity [2] | inhibition [4] | Activity [1] | Activity [3] | inhibition [5] |
| --- | --- | --- | --- | --- | --- |
| CC(C)C[C@H](NC(=O)NCCCCO)C(=O)N1CCC[C@H]1C(=O)N[C@@H](Cc1ccccc1)C(=O)N[C@@H](Cc1ccccc1)C(=O)N[C@@H](CC(=O)O)C(N)=O ({NH(CH2)4OH-CO}-LPFFD-NH2) | 100% | – | 99.6% | – | – |
| CC(C)C[C@H](NC(=O)OCC(CO)CO)C(=O)N1CCC[C@@H]1C(=O)N[C@@H](Cc1ccccc1)C(=O)N[C@@H](Cc1ccccc1)C(=O)N[C@@H](CC(=O)O)C(=O)O | 87.9% | – | 94.8% | – | – |
| CC(C)C[C@H](NC(=O)OC[C@@H](O)CO)C(=O)N1CCC[C@H]1C(=O)N[C@@H](Cc1ccccc1)C(=O)N[C@@H](Cc1ccccc1)C(=O)N[C@@H](CC(=O)O)C(N)=O (X10-LPFFD-NH2) | 97% | – | 89.7% | – | – |
| CC(C)C[C@H](NC(=O)OC[C@H](COS(=O)(=O)O)OS(=O)(=O)O)C(=O)N1CCC[C@H]1C(=O)N[C@@H](Cc1ccccc1)C(=O)N[C@@H](Cc1ccccc1)C(=O)N[C@@H](CC(=O)O)C(N)=O (X6-LPFFD-NH2) | 95.1% | – | 91.4% | – | – |
| CC(C)C[C@H](NC(=O)NC[C@@H](COS(=O)(=O)O)OS(=O)(=O)O)C(=O)N1CCC[C@H]1C(=O)N[C@@H](Cc1ccccc1)C(=O)N[C@@H](Cc1ccccc1)C(=O)N[C@@H](CC(=O)O)C(N)=O ({X12-CO}-LPFFD-NH2) | 127% | – | 92% | – | – |
| CC(C)C[C@H](NC(=O)OC[C@H](O)CO)C(=O)N1CCC[C@H]1C(=O)N[C@@H](Cc1ccccc1)C(=O)N[C@@H](Cc1ccccc1)C(=O)N[C@@H](CC(=O)O)C(N)=O (X11-LPFFD-NH2) | 100% | – | 91.6% | – | – |
| CC(C)C[C@H](NC(=O)OCCCO)C(=O)N1CCC[C@H]1C(=O)N[C@@H](Cc1ccccc1)C(=O)N[C@@H](Cc1ccccc1)C(=O)N[C@@H](CC(=O)O)C(N)=O (X13-LPFFD-NH2) | 92.9% | – | 93% | – | – |
| CC(C)C[C@H](NC(=O)NCCCOS(=O)(=O)O)C(=O)N1CCC[C@H]1C(=O)N[C@@H](Cc1ccccc1)C(=O)N[C@@H](Cc1ccccc1)C(=O)N[C@@H](CC(=O)O)C(N)=O ({X5-CO}-LPFFD-NH2) | 83% | – | 95.9% | – | – |
| CC(C)C[C@H](NC(=O)NCCCO)C(=O)N1CCC[C@H]1C(=O)N[C@@H](Cc1ccccc1)C(=O)N[C@@H](Cc1ccccc1)C(=O)N[C@@H](CC(=O)O)C(N)=O ({NH(3-hydroxypropyl)-CO}-LPFFD-NH2) | 82.7% | – | 96.1% | – | – |
| CC(C)C[C@H](NC(=O)NC[C@H](O)CO)C(=O)N1CCC[C@H]1C(=O)N[C@@H](Cc1ccccc1)C(=O)N[C@@H](Cc1ccccc1)C(=O)N[C@@H](CC(=O)O)C(N)=O ({X4-CO}-LPFFD-NH2) | 98.7% | – | 92.5% | – | – |
| CC(C)C[C@H](NC(=O)OCCCOS(=O)(=O)O)C(=O)N1CCC[C@H]1C(=O)N[C@@H](Cc1ccccc1)C(=O)N[C@@H](Cc1ccccc1)C(=O)N[C@@H](CC(=O)O)C(N)=O (X3-LPFFD-NH2) | 107% | – | 107% | – | – |
| CC(C)C[C@H](NC(=O)NC[C@H](COS(=O)(=O)O)OS(=O)(=O)O)C(=O)N1CCC[C@H]1C(=O)N[C@@H](Cc1ccccc1)C(=O)N[C@@H](Cc1ccccc1)C(=O)N[C@@H](CC(=O)O)C(N)=O ({X2-CO}-LPFFD-NH2) | 120% | – | 92% | – | – |

Further lines, with some results ahead:

| Activity [2] | inhibition [4] | Molecule | Activity [1] | Activity [3] | inhibition [5] |
| --- | --- | --- | --- | --- | --- |
| 76.4% | – | CC(C)C[C@H](NC(=O)OCC(CO)CO)C(=O)N1CCC[C@H]1C(=O)N[C@@H](Cc1ccccc1)C(=O)N[C@@H](Cc1ccccc1)C(=O)N[C@@H](CC(=O)O)C(=O)O | 81.1% | Non-toxic | – |
| 96.3% | – | CC(C)C[C@H](NC(=O)OC[C@@H](COS(=O)(=O)O)OS(=O)(=O)O)C(=O)N1CCC[C@H]1C(=O)N[C@@H](Cc1ccccc1)C(=O)N[C@@H](Cc1ccccc1)C(=O)N[C@@H](CC(=O)O)C(N)=O (X7-LPFFD-NH2) | 95.9% | – | – |
| 94.7% | – | CC(C)C[C@H](NC(=O)OCC(COS(=O)(=O)O)CS(=O)(=O)O)C(=O)N1CCC[C@@H]1C(=O)N[C@@H](Cc1ccccc1)C(=O)N[C@@H](Cc1ccccc1)C(=O)N[C@@H](CC(=O)O)C(=O)O (some centres undefined) | 93.8% | – | – |
| 98.7% | – | CC(C)C[C@H](NC(=O)NC[C@@H](O)CO)C(=O)N1CCC[C@H]1C(=O)N[C@@H](Cc1ccccc1)C(=O)N[C@@H](Cc1ccccc1)C(=O)N[C@@H](CC(=O)O)C(N)=O ({X14-CO}-LPFFD-NH2) | 96.6% | – | – |
| 51.9% | 50% | Ac-LPFFD-NH2 | 51.8% | – | 50% |
| 100% | – | CC(C)C[C@H](NC(=O)NCCCCOS(=O)(=O)O)C(=O)N1CCC[C@H]1C(=O)N[C@@H](Cc1ccccc1)C(=O)N[C@@H](Cc1ccccc1)C(=O)N[C@@H](CC(=O)O)C(N)=O ({X9-CO}-LPFFD-NH2) | 96.5% | – | – |
